Assays:
wtEGFR = molecular target: T1, wtEGFR (Homo sapiens, UniProt P00533); experiment: HotSpot radiometric kinase activity assay, wtEGFR; conditions: biochemical activity, 4 nM wtEGFR, 10 μM 33P-ATP, 2 hours, read-out: EGFR WT IC50
T1 construct: purchased Invitrogen PR7295B
Protocol: (§1) The purpose of the wtERBB2, ERBB2-A775_G776insYVMA (ERBB2YVMA), wtEGFR biochemical assay was to evaluate the inhibition (% inhibition and IC50 values) of the small molecule inhibitors by using the “HotSpot” radiometric kinase activity assay. HotSpot assays monitor the production of kinase substrate by the radioactive gamma phosphate of adenosine triphosphate (33P-ATP) during biochemical reactions. HotSpot assays was performed in steps upon completion of the kinase reaction: deposition of a reaction mixture aliquot onto P81 ion exchange paper, extensive washing of the aforementioned P81 paper using phosphoric acid to remove unbound radiolabeled 33P-ATP from the P81 paper, and finally visualization and quantification of the dried P81 paper utilizing a phosphoimager. […] Typical reaction solutions (10 μL, final reaction volume) contained the following buffer conditions: 20 mM Hepes (pH 7.5), 10 mM MgCl2, 1 mM EGTA, 0.01% Brij35, 0.02 mg/mL BSA, 0.1 mM Na3VO4, 2 mM DTT, 1% DMSO. The assay was primed by preparing a fresh 0.2 mg/mL solution of pEY (Sigma Cat: P7244) substrate in the reaction buffer and supplementing that solution with […] of MnCl2 as substrate cofactor (Sigma Cat: M9522). The kinase of interest was then added to the solution at the appropriate concentration (30 nM wtERBB2 from, or 20 nM ERBB2YVMA, or 4 nM wtEGFR) and gently mixed prior to delivery of compound in 100% DMSO by acoustic dispensing (Beckman Echo550). Compound, Kinase, and substrate were allowed to incubate for 20 min at room temperature prior to the initiation of the reaction by addition of 33P-ATP (PerkinElmer Cat: NEG602, final conc 10 μM). […] IC50 determinations were made from a plot of kinase activity as a function of inhibitor concentration fit to the 4-parameter IC50 equation with the enzyme concentration held constant using GraphPad Prism (San Diego).

BaF3_HER2WT cells = BaF3_HER2WT cells (Homo sapiens, UniProt P04626); experiment: Cell growth inhibition assay (CellTiterGlo), BaF3_HER2WT; assay type: cell-based; conditions: 3-day treatment, CellTiterGlo, read-out: Cell growth inhibition activity, HER2 WT
[1] = molecular target: T2, ERBB2-A775_G776insYVMA (ERBB2YVMA) (Homo sapiens, UniProt P04626, INS775YVMA); experiment: HotSpot radiometric kinase activity assay, ERBB2YVMA; conditions: biochemical activity, 20 nM ERBB2YVMA, 10 μM 33P-ATP, 2 hours, read-out: HER2 - YVMA IC50
T2 construct: purchased SignalChem E27-13BG
Protocol: as §1

BaF3_EGFRWT cells = BaF3_EGFRWT cells (Homo sapiens, UniProt P00533); experiment: Cell growth inhibition assay (CellTiterGlo), BaF3_EGFRWT; assay type: cell-based; conditions: 3-day treatment, CellTiterGlo, read-out: Cell growth inhibition activity, EGFR WT
BaF3_HER2YVMA cells = BaF3_HER2YVMA cells (Homo sapiens, UniProt P04626, DUP772-775, cells depend on it); experiment: Cell growth inhibition assay (CellTiterGlo), BaF3_HER2YVMA; assay type: cell-based; conditions: 3-day treatment, CellTiterGlo, read-out: Cell growth inhibition activity, HER2 - YVMA
Sequence of BaF3_HER2YVMA cells (P04626 with tags, fused parts or gaps DUP772-775): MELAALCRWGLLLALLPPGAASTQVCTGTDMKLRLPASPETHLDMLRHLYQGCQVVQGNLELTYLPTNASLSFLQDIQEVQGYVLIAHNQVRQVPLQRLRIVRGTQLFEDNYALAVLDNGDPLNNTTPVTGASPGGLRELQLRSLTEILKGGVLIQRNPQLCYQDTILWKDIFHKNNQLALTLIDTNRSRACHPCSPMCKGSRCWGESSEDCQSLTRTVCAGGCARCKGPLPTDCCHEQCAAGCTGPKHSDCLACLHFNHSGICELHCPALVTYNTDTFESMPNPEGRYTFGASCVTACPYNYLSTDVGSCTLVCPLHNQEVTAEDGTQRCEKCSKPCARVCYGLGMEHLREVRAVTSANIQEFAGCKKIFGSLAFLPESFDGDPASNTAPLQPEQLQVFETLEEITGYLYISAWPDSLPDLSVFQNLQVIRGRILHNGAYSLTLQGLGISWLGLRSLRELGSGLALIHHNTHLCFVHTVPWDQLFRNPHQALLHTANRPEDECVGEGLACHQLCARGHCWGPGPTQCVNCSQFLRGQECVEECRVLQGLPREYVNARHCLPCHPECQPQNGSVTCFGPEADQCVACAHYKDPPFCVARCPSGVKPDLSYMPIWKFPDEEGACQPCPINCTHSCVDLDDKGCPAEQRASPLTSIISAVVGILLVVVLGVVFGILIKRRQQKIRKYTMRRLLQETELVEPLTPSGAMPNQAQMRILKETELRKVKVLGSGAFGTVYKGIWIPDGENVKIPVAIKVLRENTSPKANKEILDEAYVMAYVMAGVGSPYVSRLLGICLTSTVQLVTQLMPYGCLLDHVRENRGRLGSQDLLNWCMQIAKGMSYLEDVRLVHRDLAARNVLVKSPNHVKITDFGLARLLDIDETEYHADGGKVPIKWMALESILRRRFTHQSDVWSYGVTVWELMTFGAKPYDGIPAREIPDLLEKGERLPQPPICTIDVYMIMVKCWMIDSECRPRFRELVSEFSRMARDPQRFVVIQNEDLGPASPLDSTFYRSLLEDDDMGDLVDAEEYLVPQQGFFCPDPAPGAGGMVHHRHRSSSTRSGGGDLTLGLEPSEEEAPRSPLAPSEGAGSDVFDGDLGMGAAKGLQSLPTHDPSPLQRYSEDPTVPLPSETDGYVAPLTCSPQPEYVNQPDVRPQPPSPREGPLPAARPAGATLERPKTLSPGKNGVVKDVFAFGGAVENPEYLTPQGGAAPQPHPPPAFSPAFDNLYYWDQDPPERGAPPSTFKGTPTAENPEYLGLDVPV

T1 sequence (P00533 25-1210): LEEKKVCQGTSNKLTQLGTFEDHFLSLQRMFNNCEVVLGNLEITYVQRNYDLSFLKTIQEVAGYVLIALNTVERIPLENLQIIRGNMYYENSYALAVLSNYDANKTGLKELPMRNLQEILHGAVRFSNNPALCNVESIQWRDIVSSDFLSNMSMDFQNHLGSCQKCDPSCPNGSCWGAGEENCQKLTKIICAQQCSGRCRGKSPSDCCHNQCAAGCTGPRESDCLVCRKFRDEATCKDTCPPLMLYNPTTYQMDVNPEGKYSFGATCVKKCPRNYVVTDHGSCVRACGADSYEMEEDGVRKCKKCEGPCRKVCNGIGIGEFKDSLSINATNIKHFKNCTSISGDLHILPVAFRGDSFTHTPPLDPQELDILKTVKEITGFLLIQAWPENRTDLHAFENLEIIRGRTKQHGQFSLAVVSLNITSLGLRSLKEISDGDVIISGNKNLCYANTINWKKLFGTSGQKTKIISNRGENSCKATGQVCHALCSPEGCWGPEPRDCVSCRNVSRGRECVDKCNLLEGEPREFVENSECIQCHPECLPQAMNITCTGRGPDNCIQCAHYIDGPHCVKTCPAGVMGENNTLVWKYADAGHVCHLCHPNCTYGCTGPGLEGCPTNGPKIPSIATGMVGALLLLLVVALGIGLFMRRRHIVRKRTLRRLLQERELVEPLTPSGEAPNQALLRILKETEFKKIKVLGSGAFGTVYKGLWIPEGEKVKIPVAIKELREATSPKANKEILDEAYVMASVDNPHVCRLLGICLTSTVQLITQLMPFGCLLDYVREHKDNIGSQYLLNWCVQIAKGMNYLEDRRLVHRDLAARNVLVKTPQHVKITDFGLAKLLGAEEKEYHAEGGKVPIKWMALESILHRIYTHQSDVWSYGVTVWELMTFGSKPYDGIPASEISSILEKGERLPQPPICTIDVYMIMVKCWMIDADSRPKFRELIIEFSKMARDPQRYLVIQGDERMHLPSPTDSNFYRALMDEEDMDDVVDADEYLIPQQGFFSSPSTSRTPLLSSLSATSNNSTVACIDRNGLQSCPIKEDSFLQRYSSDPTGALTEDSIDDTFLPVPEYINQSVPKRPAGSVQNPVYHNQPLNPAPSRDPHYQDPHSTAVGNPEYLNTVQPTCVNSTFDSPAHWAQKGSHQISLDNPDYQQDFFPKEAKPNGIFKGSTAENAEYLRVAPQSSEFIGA
Sequence of BaF3_EGFRWT cells (P00533 whole entry, change not shown): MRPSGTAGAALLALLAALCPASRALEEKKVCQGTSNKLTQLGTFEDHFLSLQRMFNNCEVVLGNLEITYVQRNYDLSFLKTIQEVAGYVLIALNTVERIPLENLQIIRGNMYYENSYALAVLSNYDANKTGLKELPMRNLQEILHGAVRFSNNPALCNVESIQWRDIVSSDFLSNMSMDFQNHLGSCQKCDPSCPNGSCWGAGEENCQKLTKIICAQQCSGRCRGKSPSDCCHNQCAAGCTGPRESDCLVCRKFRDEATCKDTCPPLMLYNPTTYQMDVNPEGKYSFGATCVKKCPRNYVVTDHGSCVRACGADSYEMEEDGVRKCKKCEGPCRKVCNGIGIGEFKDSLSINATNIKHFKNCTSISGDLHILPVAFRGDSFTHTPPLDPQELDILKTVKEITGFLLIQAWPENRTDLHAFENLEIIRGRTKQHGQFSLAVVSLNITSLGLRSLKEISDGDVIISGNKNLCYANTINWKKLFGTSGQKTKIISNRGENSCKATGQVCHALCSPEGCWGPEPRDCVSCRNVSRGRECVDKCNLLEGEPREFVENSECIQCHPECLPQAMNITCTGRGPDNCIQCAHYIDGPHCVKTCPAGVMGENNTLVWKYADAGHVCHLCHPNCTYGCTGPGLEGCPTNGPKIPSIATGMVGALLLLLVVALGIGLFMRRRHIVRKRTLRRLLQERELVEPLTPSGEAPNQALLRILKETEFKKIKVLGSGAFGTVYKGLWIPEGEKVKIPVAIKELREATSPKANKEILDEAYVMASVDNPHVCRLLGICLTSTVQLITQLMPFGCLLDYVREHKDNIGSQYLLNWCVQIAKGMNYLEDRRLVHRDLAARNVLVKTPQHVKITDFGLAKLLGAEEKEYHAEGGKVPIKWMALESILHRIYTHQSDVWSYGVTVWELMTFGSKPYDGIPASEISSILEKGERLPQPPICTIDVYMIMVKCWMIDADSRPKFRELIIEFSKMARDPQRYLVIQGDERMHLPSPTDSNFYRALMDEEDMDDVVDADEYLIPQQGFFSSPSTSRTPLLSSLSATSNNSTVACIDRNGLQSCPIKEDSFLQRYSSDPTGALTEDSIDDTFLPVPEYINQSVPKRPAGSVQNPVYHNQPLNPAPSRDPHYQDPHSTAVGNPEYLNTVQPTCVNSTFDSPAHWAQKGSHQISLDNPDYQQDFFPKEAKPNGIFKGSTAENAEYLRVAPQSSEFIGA
T2 sequence (P04626 with tags, fused parts or gaps INS775YVMA limits assumed): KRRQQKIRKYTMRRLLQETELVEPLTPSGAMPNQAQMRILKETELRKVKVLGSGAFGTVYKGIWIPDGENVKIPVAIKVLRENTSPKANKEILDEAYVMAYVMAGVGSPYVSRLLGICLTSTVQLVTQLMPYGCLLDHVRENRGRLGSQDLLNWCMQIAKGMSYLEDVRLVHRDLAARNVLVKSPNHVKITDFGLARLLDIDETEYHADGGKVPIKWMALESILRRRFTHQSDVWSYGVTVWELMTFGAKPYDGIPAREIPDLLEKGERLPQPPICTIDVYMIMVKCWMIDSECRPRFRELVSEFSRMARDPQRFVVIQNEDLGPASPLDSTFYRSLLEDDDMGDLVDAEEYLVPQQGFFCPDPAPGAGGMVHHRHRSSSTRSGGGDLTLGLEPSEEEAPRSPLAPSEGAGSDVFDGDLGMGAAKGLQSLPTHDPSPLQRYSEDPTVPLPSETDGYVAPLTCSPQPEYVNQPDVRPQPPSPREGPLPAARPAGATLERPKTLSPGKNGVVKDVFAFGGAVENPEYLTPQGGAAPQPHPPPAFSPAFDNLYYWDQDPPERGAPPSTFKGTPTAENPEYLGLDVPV

Row | SMILES | IC50 (wtEGFR) | GI50 (BaF3_HER2WT cells) | IC50 [1] | GI50 (BaF3_EGFRWT cells) | GI50 (BaF3_HER2YVMA cells)
1 | Cc1cc(Nc2ncnn3ccc(C4CCN(C(=O)/C=C/CN(C)C)C4)c23)ccc1Oc1ccn2ncnc2c1 (single isomer, unassigned) [Example 100] | 1500 to 5000 nM | – | – | – | –
2 | Cc1cc(Nc2ncnn3ccc(C4CCCN(C(=O)/C=C/CN(C)C)C4)c23)ccc1Oc1ccn2ncnc2c1 (single isomer, unassigned) [Example 108] | 1500 to 5000 nM | – | – | – | –
3 | C=CC(=O)NC1CCN(C(=O)c2ccn3ncnc(Nc4ccc(Oc5ccn6ncnc6c5)c(C)c4)c23)CC1 [Example 5, N-(1-(4-((4-([1,2,4]triazolo[1,5-a]pyridin-7-yloxy)-3-methylphenyl)amino)pyrrolo[2,1-f][1,2,4]triazine-5-carbonyl)piperidin-4-yl)acrylamide] | 1500 to 5000 nM | < 200 nM | 200 to 500 nM | 1500 to 5000 nM | 200 to 500 nM
4 | C=CC(=O)NCCn1cc(-c2ccn3ncnc(Nc4ccc(Oc5ccn6ncnc6c5)c(C)c4)c23)cn1 [Example 13, N-(2-(4-(4-((4-([1,2,4]triazolo[1,5-a]pyridin-7-yloxy)-3-methylphenyl)amino)pyrrolo[2,1-f][1,2,4]triazin-5-yl)-1H-pyrazol-1-yl)ethyl)acrylamide] | 1500 to 5000 nM | < 200 nM | < 200 nM | 1500 to 5000 nM | 200 to 500 nM
5 | C=CC(=O)N1CC2(C1)CN(c1ccn3ncnc(Nc4ccc(Oc5ccn6ncnc6c5)c(C)c4)c13)C2 [Example 16, 1-(6-(4-((4-([1,2,4]triazolo[1,5-a]pyridin-7-yloxy)-3-methylphenyl)amino)pyrrolo[2,1-f][1,2,4]triazin-5-yl)-2,6-diazaspiro[3.3]heptan-2-yl)prop-2-en-1-one] | 1500 to 5000 nM | 200 to 500 nM | < 200 nM | 1500 to 5000 nM | 500 to 1500 nM
6 | C=C(F)C(=O)NC1CN(c2ccn3ncnc(Nc4ccc(Oc5ccn6ncnc6c5)c(C)c4)c23)C1 [Example 18, N-(1-(4-((4-([1,2,4]triazolo[1,5-a]pyridin-7-yloxy)-3-methylphenyl)amino)pyrrolo[2,1-f][1,2,4]triazin-5-yl)azetidin-3-yl)-2-fluoroacrylamide] | 1500 to 5000 nM | 200 to 500 nM | < 200 nM | 1500 to 5000 nM | 500 to 1500 nM
7 | C=C(F)C(=O)N1CC(n2cc(-c3ccn4ncnc(Nc5ccc(Oc6ccn7ncnc7c6)c(C)c5)c34)cn2)C1 [Example 19, 1-(3-(4-(4-((4-([1,2,4]triazolo[1,5-a]pyridin-7-yloxy)-3-methylphenyl)amino)pyrrolo[2,1-f][1,2,4]triazin-5-yl)-1H-pyrazol-1-yl)azetidin-1-yl)-2-fluoroprop-2-en-1-one] | 1500 to 5000 nM | 200 to 500 nM | 200 to 500 nM | 1500 to 5000 nM | 500 to 1500 nM
8 | Cc1cc(Nc2ncnn3ccc(C4CN(C(=O)/C=C/CN5CC(F)(F)C5)C4)c23)ccc1Oc1ccn2ncnc2c1 [Example 91, (E)-1-(3-(4-((4-([1,2,4]triazolo[1,5-a]pyridin-7-yloxy)-3-methylphenyl)amino)pyrrolo[2,1-f][1,2,4]-triazin-5-yl)azetidin-1-yl)-4-(3,3-difluoroazetidin-1-yl)but-2-en-1-one] | 500 to 1500 nM | < 200 nM | < 200 nM | 1500 to 5000 nM | 500 to 1500 nM
9 | Cc1cc(Nc2ncnn3ccc(C4CCCN(C(=O)/C=C/CN(C)C)C4)c23)ccc1Oc1ccn2ncnc2c1 (centres unmarked) [Example 96, (E)-1-(3-(4-((4-([1,2,4]triazolo[1,5-a]pyridin-7-yloxy)-3-methylphenyl)amino)-pyrrolo-[2,1-f][1,2,4]-triazin-5-yl)piperidin-1-yl)-4-(dimethylamino)but-2-en-1-one] | 500 to 1500 nM | < 200 nM | < 200 nM | 1500 to 5000 nM | 500 to 1500 nM

Next, values leading:

Row | IC50 (wtEGFR) | GI50 (BaF3_HER2WT cells) | IC50 [1] | GI50 (BaF3_EGFRWT cells) | GI50 (BaF3_HER2YVMA cells) | SMILES
10 | 500 to 1500 nM | – | – | – | – | Cc1cc(Nc2ncnn3ccc(C4CCCN(C(=O)/C=C/CN(C)C)C4)c23)ccc1Oc1ccn2ncnc2c1 (single isomer, unassigned) [Example 107]
11 | 200 to 500 nM | – | – | – | – | Cc1cc(Nc2ncnn3ccc(C4CCCN(C(=O)/C=C/CN(C)C)CC4)c23)ccc1Oc1ccn2ncnc2c1 (single isomer, unassigned) [Example 110]
12 | 500 to 1500 nM | < 200 nM | < 200 nM | 1500 to 5000 nM | < 200 nM | C=CC(=O)N1CCC(c2ccn3ncnc(Nc4ccc(Oc5ccn6ncnc6c5)c(C)c4)c23)C1 (centres unmarked) [Example 11, 1-(3-(4-((4-([1,2,4]triazolo[1,5-a]pyridin-7-yloxy)-3-methylphenyl)amino)pyrrolo[2,1-f][1,2,4]triazin-5-yl)pyrrolidin-1-yl)prop-2-en-1-one]
13 | 200 to 500 nM | < 200 nM | < 200 nM | 1500 to 5000 nM | < 200 nM | C=CC(=O)NC1CN(c2ccn3ncnc(Nc4ccc(Oc5ccn6ncnc6c5)c(C)c4)c23)C1 [Example 14, N-(1-(4-((4-([1,2,4]triazolo[1,5-a]pyridin-7-yloxy)-3-methylphenyl)amino)pyrrolo[2,1-f][1,2,4]triazin-5-yl)azetidin-3-yl)acrylamide]
14 | 500 to 1500 nM | < 200 nM | < 200 nM | 1500 to 5000 nM | < 200 nM | Cc1cc(Nc2ncnn3ccc(N4CCN(C(=O)/C=C/CN(C)C)CC4)c23)ccc1Oc1ccn2ncnc2c1 [Example 22, (E)-1-(4-(4-((4-([1,2,4]triazolo[1,5-a]pyridin-7-yloxy)-3-methylphenyl)amino)pyrrolo[2,1-f][1,2,4]triazin-5-yl)piperazin-1-yl)-4-(dimethylamino)but-2-en-1-one]
15 | 500 to 1500 nM | 500 to 1500 nM | < 200 nM | 1500 to 5000 nM | 1500 to 5000 nM | Cc1cc(Nc2ncnn3ccc(C4CCN(C(=O)CCCN(C)C)CC4)c23)ccc1Oc1ccn2ncnc2c1 [Example 23, 1-(4-(4-((4-([1,2,4]triazolo[1,5-a]pyridin-7-yloxy)-3-methylphenyl)amino)pyrrolo[2,1-f][1,2,4]triazin-5-yl)piperidin-1-yl)-4-(dimethylamino)butan-1-one]
16 | 200 to 500 nM | 1500 to 5000 nM | < 200 nM | 1500 to 5000 nM | 1500 to 5000 nM | Cc1cc(Nc2ncnn3ccc(C4CN(C(=O)/C=C/CN)C4)c23)ccc1Oc1ccn2ncnc2c1 [Example 87, (E)-1-(3-(4-((4-([1,2,4]triazolo[1,5-a]pyridin-7-yloxy)-3-methylphenyl)amino)pyrrolo[2,1-f][1,2,4]triazin-5-yl)azetidin-1-yl)-4-aminobut-2-en-1-one]
17 | 200 to 500 nM | < 200 nM | < 200 nM | 1500 to 5000 nM | < 200 nM | Cc1cc(Nc2ncnn3ccc(C4CCCN(C(=O)/C=C/CN(C)C)CC4)c23)ccc1Oc1ccn2ncnc2c1 (centres unmarked) [Example 93, (E)-1-(4-(4-((4-([1,2,4]triazolo[1,5-a]pyridin-7-yloxy)-3-methylphenyl)amino)pyrrolo[2,1-f][1,2,4]triazin-5-yl)azepan-1-yl)-4-(dimethylamino)but-2-en-1-one]
18 | 200 to 500 nM | 200 to 500 nM | < 200 nM | 1500 to 5000 nM | 500 to 1500 nM | Cc1cc(Nc2ncnn3ccc(C4CC5(C4)CN(C(=O)/C=C/CN(C)C)C5)c23)ccc1Oc1ccn2ncnc2c1 [Example 95, (E)-1-(6-(4-((4-([1,2,4]triazolo[1,5-a]pyridin-7-yloxy)-3-methylphenyl)amino)pyrrolo[2,1-f][1,2,4]triazin-5-yl)-2-azaspiro[3.3]heptan-2-yl)-4-(dimethylamino)but-2-en-1-one]

From US20240132521A1, “COMPOUNDS AND METHODS FOR MODULATING HER2” (Iambic Therapeutics, Inc., priority 2022, published 2024)
